From PubChem BioAssay (NCI)
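In this assay, cells in 96-well plates receive the compound at five concentrations for 48 hours. Endpoints are linearly interpolated between the surrounding concentrations. TGI denotes the concentration required for complete inhibition of growth.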

Tests used:
Test in all cases: NCI anticancer screen, dose series, 48 h
[1] = tested on: ACHN renal
[2] = tested on: CCRF-CEM leukemia
[3] = tested on: SK-OV-3 ovarian
[4] = tested on: SN12C renal
[5] = tested on: A498 renal
[6] = tested on: U251 CNS
[7] = tested on: SF-539 CNS
[8] = tested on: IGROV1 ovarian
[9] = tested on: HOP-62 NSCLC
[10] = tested on: MDA-N
[11] = tested on: OVCAR-3 ovarian
[12] = tested on: SK-MEL-5 melanoma
[13] = tested on: MDA-MB-231 breast
[14] = tested on: SF-295 CNS
[15] = tested on: MALME-3M melanoma
[16] = tested on: A549 NSCLC
[17] = tested on: K-562 leukemia
[18] = tested on: COLO 205 colon
[19] = tested on: HCT-15 colon
[20] = tested on: OVCAR-4 ovarian
[21] = tested on: BT-549 breast
[22] = tested on: OVCAR-5 ovarian
[23] = tested on: HS 578T breast
[24] = tested on: NCI-H23 lung
[25] = tested on: RPMI-8226 leukemia
[26] = tested on: DU-145 prostate
[27] = tested on: SNB-75 CNS
[28] = tested on: SNB-19 CNS
[29] = tested on: CAKI-1 renal
[30] = tested on: MCF7 breast
[31] = tested on: HT29 colon
[32] = tested on: UACC-257 melanoma
[33] = tested on: UACC-62 melanoma
[34] = tested on: HOP-92 NSCLC
[35] = tested on: OVCAR-8 ovarian
[36] = tested on: HCT-116 colon
[37] = tested on: NCI-H522 lung
[38] = tested on: MOLT-4 leukemia
[39] = tested on: M14 melanoma
[40] = tested on: EKVX NSCLC
[41] = tested on: NCI-H226 lung
[42] = tested on: UO-31 renal
[43] = tested on: 786-0 renal
[44] = tested on: SK-MEL-2 melanoma
[45] = tested on: MDA-MB-435
[46] = tested on: SK-MEL-28 melanoma
[47] = tested on: HL-60(TB) leukemia
[48] = tested on: NCI/ADR-RES ovarian
[49] = tested on: SF-268 CNS
[50] = tested on: PC-3 prostate
[51] = tested on: LOX IMVI melanoma
[52] = tested on: T-47D breast
[53] = tested on: TK-10 renal
[54] = tested on: RXF 393 renal
[55] = tested on: SR leukemia
[56] = tested on: HCC-2998 colon
[57] = tested on: SW-620 colon
[58] = tested on: NCI-H460 lung
[59] = tested on: KM12 colon

C=C(Br)CN=CN(C)C
TGI [1]: > 100 µM | TGI [2]: > 100 µM | TGI [3]: > 100 µM | TGI [4]: > 100 µM | TGI [5]: > 100 µM | TGI [6]: > 100 µM | TGI [7]: > 100 µM | TGI [8]: > 100 µM | TGI [9]: > 100 µM | TGI [10]: > 100 µM | TGI [11]: > 100 µM | TGI [12]: > 100 µM | TGI [13]: > 100 µM | TGI [14]: > 100 µM | TGI [15]: > 100 µM | TGI [16]: > 100 µM | TGI [17]: > 100 µM | TGI [18]: > 100 µM | TGI [19]: > 100 µM | TGI [20]: > 100 µM | TGI [21]: > 100 µM | TGI [22]: > 100 µM | TGI [23]: > 100 µM | TGI [24]: > 100 µM | TGI [25]: > 100 µM | TGI [26]: > 100 µM | TGI [27]: > 100 µM | TGI [28]: > 100 µM | TGI [29]: > 100 µM | TGI [30]: > 100 µM | TGI [31]: > 100 µM | TGI [32]: > 100 µM | TGI [33]: > 100 µM | TGI [34]: > 100 µM | TGI [35]: > 100 µM | TGI [36]: > 100 µM | TGI [37]: > 100 µM | TGI [38]: > 100 µM | TGI [39]: > 100 µM | TGI [40]: > 100 µM | TGI [41]: > 100 µM | TGI [42]: > 100 µM | TGI [43]: > 100 µM | TGI [44]: > 100 µM | TGI [45]: > 100 µM | TGI [46]: > 100 µM | TGI [47]: > 100 µM | TGI [48]: > 100 µM | TGI [49]: > 100 µM | TGI [50]: > 100 µM | TGI [51]: > 100 µM | TGI [52]: > 100 µM | TGI [53]: > 100 µM | TGI [54]: > 100 µM | TGI [55]: > 100 µM

CCN(CC)C(=S)SC(C(=O)Nc1nnc(-c2ccc(Cl)cc2)o1)c1ccccc1 (configuration not stated)
TGI [1]: 26.3 µM | TGI [2]: 9.82 µM | TGI [3]: 31.4 µM | TGI [4]: 38.2 µM | TGI [5]: 41.4 µM | TGI [6]: 65.3 µM | TGI [7]: 30.5 µM | TGI [8]: 8.33 µM | TGI [9]: 43.1 µM | TGI [10]: 50.3 µM | TGI [11]: 10.2 µM | TGI [12]: 19.4 µM | TGI [13]: 77.7 µM | TGI [14]: 48.2 µM | TGI [15]: 32.7 µM | TGI [16]: 52.1 µM | TGI [17]: 42.4 µM | TGI [18]: 14.5 µM | TGI [19]: 18.9 µM | TGI [20]: 18.6 µM | TGI [56]: 16.9 µM | TGI [21]: 66.7 µM | TGI [22]: 26.6 µM | TGI [23]: > 100 µM | TGI [24]: > 100 µM | TGI [57]: 35.9 µM | TGI [25]: 22 µM | TGI [26]: 94 µM | TGI [28]: > 100 µM | TGI [29]: 51.8 µM | TGI [30]: > 100 µM | TGI [31]: 16.9 µM | TGI [32]: > 100 µM | TGI [33]: 23.6 µM | TGI [34]: 51.5 µM | TGI [35]: > 100 µM | TGI [36]: 13.5 µM | TGI [37]: 26.6 µM | TGI [38]: > 100 µM | TGI [39]: 27.6 µM | TGI [40]: 29.4 µM | TGI [42]: 52.1 µM | TGI [43]: 39 µM | TGI [44]: > 100 µM | TGI [45]: 36 µM | TGI [58]: 84.1 µM | TGI [46]: 33.5 µM | TGI [47]: > 100 µM | TGI [48]: 30.5 µM | TGI [49]: 67 µM | TGI [50]: 28.3 µM | TGI [51]: 40.2 µM | TGI [52]: 59.7 µM | TGI [53]: 62.3 µM | TGI [59]: 58.2 µM | TGI [54]: 48.8 µM | TGI [55]: 38.3 µM
